Measurements reported in patent US12344618B2, “Heterotricyclic derivative compound and use of same” (HANMI PHARMACEUTICAL CO., LTD., priority 2019, dated 2025).
Where two headings read alike, the source gives them in different places.

Assays:
EZH1 = molecular target: T1, EZH1 (Homo sapiens, UniProt Q92800); assay: Inhibitory activity against EZH1 methyltransferase (radiometric scintillation proximity assay); type: biochemical; details: 2.3 nmol/L enzyme, 90 minutes, room temperature;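 also: Read-out is methylation of a substrate peptide, captured on streptavidin-coated SPA beads and counted by scintillation, in Tris-HCl buffer at pH 8.0 with 1% DMSO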
T1 construct: purchased Reaction Biology Corp. (contract assay)
T1 sequence (Q92800 whole entry): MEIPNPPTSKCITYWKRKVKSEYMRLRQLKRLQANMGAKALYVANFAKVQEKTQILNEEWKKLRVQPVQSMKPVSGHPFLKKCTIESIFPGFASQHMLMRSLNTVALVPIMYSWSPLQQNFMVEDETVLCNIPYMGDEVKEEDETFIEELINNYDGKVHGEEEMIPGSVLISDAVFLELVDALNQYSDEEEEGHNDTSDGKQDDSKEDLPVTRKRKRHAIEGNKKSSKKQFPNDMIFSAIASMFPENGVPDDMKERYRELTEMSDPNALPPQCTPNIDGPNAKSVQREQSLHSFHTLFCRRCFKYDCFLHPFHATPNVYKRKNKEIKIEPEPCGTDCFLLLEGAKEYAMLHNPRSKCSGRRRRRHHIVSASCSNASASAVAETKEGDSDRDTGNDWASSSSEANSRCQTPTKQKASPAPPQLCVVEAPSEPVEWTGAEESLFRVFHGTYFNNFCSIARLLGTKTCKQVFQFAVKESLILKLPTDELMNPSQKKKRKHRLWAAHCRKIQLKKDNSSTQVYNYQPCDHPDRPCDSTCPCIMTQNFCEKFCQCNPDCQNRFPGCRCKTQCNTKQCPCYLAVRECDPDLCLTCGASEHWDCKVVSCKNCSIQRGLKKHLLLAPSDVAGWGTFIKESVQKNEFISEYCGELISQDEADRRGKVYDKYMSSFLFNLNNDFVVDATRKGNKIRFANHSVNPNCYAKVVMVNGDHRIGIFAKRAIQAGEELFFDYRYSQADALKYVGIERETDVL
T1 sequence (O75530 whole entry partner): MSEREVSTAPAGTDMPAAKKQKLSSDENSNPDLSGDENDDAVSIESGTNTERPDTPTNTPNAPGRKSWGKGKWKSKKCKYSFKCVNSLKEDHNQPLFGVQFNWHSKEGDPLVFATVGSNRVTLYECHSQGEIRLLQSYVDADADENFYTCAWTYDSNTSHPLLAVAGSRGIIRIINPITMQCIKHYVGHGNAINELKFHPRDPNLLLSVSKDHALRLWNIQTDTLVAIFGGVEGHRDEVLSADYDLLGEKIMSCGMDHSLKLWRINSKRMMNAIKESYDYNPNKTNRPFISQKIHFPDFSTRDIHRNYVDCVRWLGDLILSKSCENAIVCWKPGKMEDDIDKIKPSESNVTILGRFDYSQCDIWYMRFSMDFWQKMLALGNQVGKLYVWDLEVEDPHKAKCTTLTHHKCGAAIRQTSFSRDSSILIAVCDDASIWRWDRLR
T1 sequence (Q15022 whole entry partner): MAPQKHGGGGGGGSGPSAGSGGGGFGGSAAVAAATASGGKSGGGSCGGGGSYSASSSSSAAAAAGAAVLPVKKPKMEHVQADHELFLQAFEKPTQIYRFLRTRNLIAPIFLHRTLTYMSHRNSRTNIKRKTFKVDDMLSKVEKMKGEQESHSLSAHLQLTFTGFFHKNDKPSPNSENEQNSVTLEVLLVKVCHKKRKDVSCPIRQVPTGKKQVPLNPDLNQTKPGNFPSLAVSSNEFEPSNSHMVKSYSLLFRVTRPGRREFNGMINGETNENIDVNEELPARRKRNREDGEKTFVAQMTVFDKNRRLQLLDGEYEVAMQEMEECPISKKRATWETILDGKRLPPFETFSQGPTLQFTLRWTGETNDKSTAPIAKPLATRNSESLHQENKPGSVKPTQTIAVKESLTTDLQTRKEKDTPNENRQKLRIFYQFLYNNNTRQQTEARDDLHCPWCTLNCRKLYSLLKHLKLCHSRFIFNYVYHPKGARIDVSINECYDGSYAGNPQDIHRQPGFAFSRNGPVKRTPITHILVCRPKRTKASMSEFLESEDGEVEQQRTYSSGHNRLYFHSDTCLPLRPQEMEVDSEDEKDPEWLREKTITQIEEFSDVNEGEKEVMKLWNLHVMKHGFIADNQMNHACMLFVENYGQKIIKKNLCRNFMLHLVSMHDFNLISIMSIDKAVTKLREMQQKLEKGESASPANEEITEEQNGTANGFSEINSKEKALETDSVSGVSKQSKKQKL
T1 sequence (Q09028 whole entry partner): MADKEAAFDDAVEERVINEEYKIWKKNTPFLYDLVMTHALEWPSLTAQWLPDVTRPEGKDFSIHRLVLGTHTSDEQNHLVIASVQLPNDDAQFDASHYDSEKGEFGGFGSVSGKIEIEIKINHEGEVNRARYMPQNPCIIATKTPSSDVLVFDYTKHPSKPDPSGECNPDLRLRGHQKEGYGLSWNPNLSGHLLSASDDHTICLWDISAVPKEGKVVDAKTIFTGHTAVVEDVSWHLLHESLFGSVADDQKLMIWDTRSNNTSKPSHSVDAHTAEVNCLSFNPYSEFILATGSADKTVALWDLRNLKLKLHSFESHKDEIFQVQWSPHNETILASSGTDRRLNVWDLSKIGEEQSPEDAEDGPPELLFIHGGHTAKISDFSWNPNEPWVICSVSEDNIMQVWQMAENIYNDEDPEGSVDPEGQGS
T1 sequence (Q6ZN18 whole entry partner): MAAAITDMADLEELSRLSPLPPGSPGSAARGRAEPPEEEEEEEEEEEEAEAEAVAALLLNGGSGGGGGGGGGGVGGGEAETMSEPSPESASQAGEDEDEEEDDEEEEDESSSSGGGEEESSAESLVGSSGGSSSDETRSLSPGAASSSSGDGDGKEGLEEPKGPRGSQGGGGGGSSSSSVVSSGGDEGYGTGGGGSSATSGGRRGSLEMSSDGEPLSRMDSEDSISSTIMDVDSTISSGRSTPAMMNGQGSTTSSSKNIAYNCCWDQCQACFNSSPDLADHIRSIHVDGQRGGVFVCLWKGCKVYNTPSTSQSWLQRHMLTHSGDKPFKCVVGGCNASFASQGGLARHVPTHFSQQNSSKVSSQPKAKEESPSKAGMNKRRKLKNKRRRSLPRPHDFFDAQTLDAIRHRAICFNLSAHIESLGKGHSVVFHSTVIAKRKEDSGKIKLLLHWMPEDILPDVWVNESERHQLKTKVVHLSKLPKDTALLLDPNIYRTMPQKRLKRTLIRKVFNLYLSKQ
Experimental: The inhibitory activities of the synthetic compounds against EZH1 or EZH2 methyltransferase were measured. The experiment was conducted by Reaction Biology Corp., and the activity of EZH1 or EZH2 was measured using a radiometric scintillation proximity assay. […] The reaction buffer consisted of 50 mmol/L Tris-HCl (pH 8.0), 50 mmol/L NaCl, 1 mmol/L EDTA, 1 mmoL/L DTT, 1 mmol/L PMSF, and 1% DMSO. Trichloroacetic acid was added to terminate the reaction, and PVT streptavidin-coated SPA beads were added to each reaction solution, followed by further reaction at room temperature for 1 hour again. The methylation value of the substrate peptide was measured using the TopCount NXT plate reader.

[1] = tested on: KARPAS-422 (EZH2 Y641N mutation); assay: Cell growth inhibition test, KARPAS-422; type: cell-based; details: KARPAS-422, culture time 7 days, read-out: Cell growth inhibitory activity (GI50, nM) KARPAS-422 (EZH2 Y641N mutation)
[2] = Metabolic stability in human liver microsomes; type: in vitro ADME; details: 5 μM compound, 1 mg/mL human liver microsomes, 37° C., NADPH regenerating system
Experimental: (§1) In order to confirm the metabolic stability of the synthetic compounds in the liver, 5 μM test compound and 1 mg/mL human, dog, rat or mouse liver microsomes were allowed to react with each other at 37° C. in the presence of the NADPH regenerating system for 1 hour. After 1 hour, the reaction was terminated and the supernatant obtained by centrifugation was analyzed by HPLC. With the peak value obtained as the analysis result, the residual amount (%) was calculated using the following equation through the peak value of the test compound after 1 hour of the reaction versus the peak value of the test compound at 0 min. Residual amount (%)=(peak value of test compound after 1 hour of reaction/peak value of test compound at 0 min)×100

[3] = Metabolic stability in mouse liver microsomes; type: in vitro ADME; details: 5 μM compound, 1 mg/mL mouse liver microsomes, 37° C., NADPH regenerating system
Experimental: as §1

[4] = Mouse pharmacokinetics, oral single dose; type: in vivo; details: plasma, 30 mg/kg, mice (ICR, male), oral single dose 30 mg/kg; for AUC: male, ICR, mouse, po, read-out: Area under oral curve (AUC)
Experimental: Pharmacokinetics of the synthetic compounds as EZH2 inhibitors in mice (ICR, 8-week-old, male) were tested.
The oral administration group was maintained in a fasting state from the day before the test to 4 hours after administration of the test compound. On the day of administration of the test compound, the weight of each animal was measured and each synthetic compound was formulated using a selected solvent based on 30 mg/kg (10 mL/kg). Each test compound was administered orally in a single dose, a certain amount of the blood was taken at a predetermined time, plasma was isolated therefrom, and the concentration of each test compound in the plasma was analyzed using LC-MS/MS (Waters UPLC H-Class/Xevo TQ; Waters, USA). Pharmacokinetic coefficients were calculated by a linear-log trapezoidal summation formula using a non-compartment analysis of the Phoenix™ WinNonlin (Certara, USA) program through the plasma concentration curve over time.

EZH2 = EZH2 (Homo sapiens, UniProt Q15910); assay: Inhibitory activity against EZH2 methyltransferase (radiometric scintillation proximity assay); details: Enzyme inhibitory activity (IC50, nM) EZH2, 2.3 nmol/L enzyme, 90 minutes, room temperature;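 also: Read-out is substrate peptide methylation, captured on streptavidin-coated SPA beads and counted by scintillation, with the reaction run in Tris-HCl buffer at pH 8.0 containing 1% DMSO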
EZH2, sequence (Q15910 whole entry): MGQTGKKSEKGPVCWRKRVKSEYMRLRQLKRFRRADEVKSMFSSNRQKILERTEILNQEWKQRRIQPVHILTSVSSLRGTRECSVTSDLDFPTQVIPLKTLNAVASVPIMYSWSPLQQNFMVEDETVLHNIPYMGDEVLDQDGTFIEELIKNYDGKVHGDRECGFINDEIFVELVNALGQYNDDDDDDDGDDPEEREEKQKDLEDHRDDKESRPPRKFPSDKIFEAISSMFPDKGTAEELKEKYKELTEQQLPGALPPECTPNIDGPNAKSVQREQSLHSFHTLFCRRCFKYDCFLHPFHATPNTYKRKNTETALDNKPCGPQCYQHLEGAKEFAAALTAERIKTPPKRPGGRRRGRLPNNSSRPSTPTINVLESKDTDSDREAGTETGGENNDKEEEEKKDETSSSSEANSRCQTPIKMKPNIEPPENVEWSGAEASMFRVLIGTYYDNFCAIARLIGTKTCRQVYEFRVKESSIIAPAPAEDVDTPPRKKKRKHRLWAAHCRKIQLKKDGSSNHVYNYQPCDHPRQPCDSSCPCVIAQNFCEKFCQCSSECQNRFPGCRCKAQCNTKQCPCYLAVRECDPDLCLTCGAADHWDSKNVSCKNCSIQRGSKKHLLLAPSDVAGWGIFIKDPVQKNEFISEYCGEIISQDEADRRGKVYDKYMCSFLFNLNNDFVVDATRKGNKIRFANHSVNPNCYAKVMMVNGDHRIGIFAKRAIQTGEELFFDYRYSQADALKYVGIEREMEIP
EZH2, sequence (O75530 whole entry partner): as the sequence (O75530 whole entry partner) above
EZH2, sequence (Q15022 whole entry partner): as the sequence (Q15022 whole entry partner) above
EZH2, sequence (Q09028 whole entry partner): as the sequence (Q09028 whole entry partner) above
EZH2, sequence (Q6ZN18 whole entry partner): as the sequence (Q6ZN18 whole entry partner) above

[5] = tested on: Pfeiffer (EZH2 A677G mutation); assay: Cell growth inhibition test, Pfeiffer; type: cell-based; details: Homo sapiens, read-out: Cell growth inhibitory activity (GI50, nM) Pfeiffer (EZH2 A677G mutation)
Experimental: Each type of the cultured cells was seeded in 6-well plates or 48-96 well plates, and subculture or medium replacement was performed every 3 to 4 days. Next, the cells were subcultured for a total of 7 to 14 days, and then seeded in 96-well plates. 3 to 5 days before the measurement of the effect, the cells were seeded in 96-well plates, and then the absorbance (Tz) on the day of seeding was measured. The absorbance after the reaction was measured by the plate reader device Synergy NeoAlpha (Biotek) using Cell-Titer-Glo Cell Viability Assay (Promega, G7573) according to the attached manual. Based on the absorbance (Tz) measured on the seeding day and the absorbance of each of the DMSO-treated group (C) and the sample-added group (Ti) measured on the day of effect determination, the percentage of cell proliferation inhibition was calculated according to the following Equation 1. [(Ti−Tz)/(C−Tz)]×100 for concentrations for which Ti≥Tz […] for concentrations for which Ti<Tz. [Equation 1]

[6] = Homo sapiens, KARPAS-422, 168 h

Row | Structure (SMILES) | IC50 (EZH1) [nM] | GI50 [1, 6] [nM] | Residual amount (%) of test compound after 1 hour of reaction, Human [2] [%] | Residual amount (%) of test compound after 1 hour of reaction, Mouse [3] [%] | AUC [4] [ng·h/mL] | IC50 (EZH2) [nM] | GI50 [1] [nM] | Area under oral curve (AUC) [4] | Half life T1/2 [4] [h] | GI50 [5] [nM]
1 | Cc1cc(C)c(CN2CCc3c(C)c4c(c(Cl)c3C2=O)OC(C)([C@H]2CC[C@H](N(C)C)CC2)O4)c(=O)[nH]1 (stereo partly shown) [Compound 4] | 20 | 1.9 to 2.6 | 84 | 79 | 770 | 2.6 | – | – | – | –
2 | Cc1cc(C)c(CN2CCc3c(Cl)c4c(c(C)c3C2=O)OC(C)([C@H]2CC[C@@H](N(C)C)CC2)O4)c(=O)[nH]1 (stereo partly drawn) [Compound 12, 9-chloro-6-((4,6-dimethyl-2-oxo-1,2-dihydropyridin-3-yl)methyl)-2-(cis-4-(dimethylamino)cyclohexyl)-2,4-dimethyl-7,8-dihydro-[1,3]dioxolo[4,5-g]isoquinolin-5(6H)-one] | 23 to 50 | 4.9 to 15 | 57 | 61 | – | 3.2 | – | – | – | 0.66
3 | Cc1cc(C)c(CN2CCc3c(Cl)c4c(c(C)c3C2=O)OC(C)([C@H]2CC[C@H](N(C)C)CC2)O4)c(=O)[nH]1 (single isomer, unassigned) [Compound 10, 9-chloro-6-((4,6-dimethyl-2-oxo-1,2-dihydropyridin-3-yl)methyl)-2-(trans-4-(dimethylamino)cyclohexyl)-2,4-dimethyl-7,8-dihydro-[1,3]dioxolo[4,5-g]isoquinolin-5(6H)-one] | 10 to 21 | – | 79 | 55 | – | 0.8 to 1.4 | 2.5 to 13 | – | – | 0.84
4 | Cc1cc(C)c(CN2CCc3c(C)c4c(c(C)c3C2=O)OC(C)([C@H]2CC[C@H](N(C)C)CC2)O4)c(=O)[nH]1 (single isomer, unassigned) [Compound 41, 6-((4,6-dimethyl-2-oxo-1,2-dihydropyridin-3-yl)methyl)-2-(trans-4-(dimethylamino)cyclohexyl)-2,4,9-trimethyl-7,8-dihydro-[1,3]dioxolo[4,5-g]isoquinolin-5(6H)-one] | > 1000 | – | 53 | 63 | – | 69 | 69 | – | – | –
5 | Cc1cc(C)c(CN2CCc3c(C)c4c(c(C)c3C2=O)OC(C)([C@H]2CC[C@H](N(C)C)CC2)O4)c(=O)[nH]1 (single isomer, unassigned) [Compound 40, 6-((4,6-dimethyl-2-oxo-1,2-dihydropyridin-3-yl)methyl)-2-(trans-4-(dimethylamino)cyclohexyl)-2,4,9-trimethyl-7,8-dihydro-[1,3]dioxolo[4,5-g]isoquinolin-5(6H)-one] | 28 | – | 82 | 84 | – | 1.8 | 1.8 | – | – | 0.71
6 | Cc1cc(C)c(CN2CCc3c(Cl)c4c(c(C)c3C2=O)OC(C)([C@H]2CC[C@H](N(C)C)CC2)O4)c(=O)[nH]1 (single isomer, unassigned) [Compound 11, 9-chloro-6-((4,6-dimethyl-2-oxo-1,2-dihydropyridin-3-yl)methyl)-2-(trans-4-(dimethylamino)cyclohexyl)-2,4-dimethyl-7,8-dihydro-[1,3]dioxolo[4,5-g]isoquinolin-5(6H)-one] | > 1000 | – | 37 | 70 | – | 116 to 473 | ≥ 563 | – | – | –
7 | CN[C@H]1CC[C@H](C2(C)Oc3c(C)c4c(c(Cl)c3O2)CCN(Cc2c(C)cc(C)[nH]c2=O)C4=O)CC1 (stereo partly drawn) [Compound 34, 9-chloro-6-((4,6-dimethyl-2-oxo-1,2-dihydropyridin-3-yl)methyl)-2,4-dimethyl-2-(trans-4-(methylamino)cyclohexyl)-7,8-dihydro-[1,3]dioxolo[4,5-g]isoquinolin-5(6H)-one] | 9.7 | 3.2 | 66 | 100 | – | 1.4 | – | – | – | 1.48

Second part, led by results:

Row | IC50 (EZH1) [nM] | GI50 [1, 6] [nM] | Residual amount (%) of test compound after 1 hour of reaction, Human [2] [%] | Residual amount (%) of test compound after 1 hour of reaction, Mouse [3] [%] | AUC [4] [ng·h/mL] | IC50 (EZH2) [nM] | GI50 [1] [nM] | Area under oral curve (AUC) [4] | Half life T1/2 [4] [h] | Structure (SMILES) | GI50 [5] [nM]
8 | – | – | 35 | 54 | – | – | 419 | 12,239 ng · hr/mL | 2.5 | Cc1cc(C)c(CN2CCc3c(Br)c4c(c(C)c3C2=O)OC(C)([C@H]2CC[C@H](N(C)C)CC2)O4)c(=O)[nH]1 (single isomer, unassigned) [Compound 50, 9-bromo-6-((4,6-dimethyl-2-oxo-1,2-dihydropyridin-3-yl)methyl)-2-(trans-4-(dimethylamino)cyclohexyl)-2,4-dimethyl-7,8-dihydro-[1,3]dioxolo[4,5-g]isoquinolin-5(6H)-one] | –
9 | 27 to 139 | 5.1 to 14 | 67 | 85 | – | 4.5 to 9.1 | – | – | – | C#Cc1c2c(c(C)c3c1OC(C)([C@H]1CC[C@H](N(C)C)CC1)O3)C(=O)N(Cc1c(C)cc(C)[nH]c1=O)CC2 (stereo partly drawn) [Compound 53, 6-((4,6-dimethyl-2-oxo-1,2-dihydropyridin-3-yl)methyl)-2-(trans-4-(dimethylamino)cyclohexyl)-9-ethynyl-2,4-dimethyl-7,8-dihydro-[1,3]dioxolo[4,5-g]isoquinolin-5(6H)-one] | –
10 | 8.1 | 58 | 52 | 61 | – | 1.4 | – | – | – | CCCc1cc(C)[nH]c(=O)c1CN1CCc2c(C)c3c(c(C)c2C1=O)OC(C)([C@H]1CC[C@H](N(C)C)CC1)O3 (stereo partly shown) [Compound 43] | 6.76
11 | 31 to 34 | 2.6 to 8.8 | 74 | 88 | – | 3.4 to 6 | – | – | – | COc1cc(C)[nH]c(=O)c1CN1CCc2c(C)c3c(c(C)c2C1=O)OC(C)([C@H]1CC[C@H](N(C)C)CC1)O3 (stereo partly drawn) [Compound 42, 2-(trans-4-(dimethylamino)cyclohexyl)-6-((4-methoxy-6-methyl-2-oxo-1,2-dihydropyridin-3-yl)methyl)-2,4,9-trimethyl-7,8-dihydro-[1,3]dioxolo[4,5-g]isoquinolin-5(6H)-one] | 0.97 to 1.41
12 | 41 | 4.4 | 70 | 64 | 1520 | 1.6 | – | – | – | CN[C@H]1CC[C@H](C2(C)Oc3c(C)c4c(c(Br)c3O2)CCN(Cc2c(C)cc(C)[nH]c2=O)C4=O)CC1 (stereo partly drawn) [Compound 51, 9-bromo-6-((4,6-dimethyl-2-oxo-1,2-dihydropyridin-3-yl)methyl)-2,4-dimethyl-2-(trans-4-(methylamino)cyclohexyl)-7,8-dihydro-[1,3]dioxolo[4,5-g]isoquinolin-5(6H)-one] | –
13 | 32 to 55 | 4.4 to 9.7 | 62 | 61 | – | 3.4 to 3.7 | – | – | – | C=Cc1c2c(c(C)c3c1OC(C)([C@H]1CC[C@H](N(C)C)CC1)O3)C(=O)N(Cc1c(C)cc(C)[nH]c1=O)CC2 (stereo partly drawn) [Compound 52, 6-((4,6-dimethyl-2-oxo-1,2-dihydropyridin-3-yl)methyl)-2-(trans-4-(dimethylamino)cyclohexyl)-2,4-dimethyl-9-vinyl-7,8-dihydro-[1,3]dioxolo[4,5-g]isoquinolin-5(6H)-one] | –
